Reference: patent publication US20130345266A1, “PEST CONTROL COMPOSITION AND PEST CONTROL METHOD” (SUMITOMO CHEMICAL COMPANY, LIMITED, priority 2011, published 2013)

Tested on: common mosquito (Culex pipiens pallens)
Experiment: Test Example 2: knock down test, forced contact with treated glass petri dish
Format: in vivo
Conditions: 5 minutes after release, ten female adults, 3 min contact
Protocol: Acetone-diluted solutions were prepared so that predetermined dosage of the Guanidine Compound and the ester compound B on glass plates indicated in Table 1 would be applied. The acetone-diluted solutions (0.5 ml) were treated on the underside of glass petri dishes with a diameter of 7 cm uniformly and air-dried. Ten female adults of common mosquito (Culex pipiens pallens) were collected by means of a pocket aspirator and placed into the petri dish, then contacted compulsorily with the treated underside of glass petri dishes by covering with a lucid plate made of polyvinyl chloride.
Three minutes after covering, said common mosquitoes were released in nyron cage (size: 16.5 cm×15.5 cm×22 cm). At a given period of time after releasing, the number of knocked down insects was counted and a knock down rate was calculated.

| Compound | Knock down rate (%) after 5 minutes (ester compound B alone 0.000125 mg/plate) [%] | Knock down rate (%) after 5 minutes (ester compound B alone 0.00025 mg/plate) [%] | Knock down rate (%) after 5 minutes (Guanidine Compound alone 0.000125 mg/plate) [%] | Knock down rate (%) after 5 minutes (Guanidine Compound alone 0.00025 mg/plate) [%] | Knock down rate (%) after 5 minutes (Guanidine Compound alone 0.0005 mg/plate) [%] | Knock down rate (%) after 5 minutes (Guanidine Compound alone 0.00125 mg/plate) [%] |
| --- | --- | --- | --- | --- | --- | --- |
| C/C=C\[C@@H]1[C@@H](C(=O)OCc2c(F)c(F)c(COC)c(F)c2F)C1(C)C (relative stereo) [reference 4, 2,3,5,6-tetrafluoro-4-methoxymethylbenzyl=(1R)-trans-3-(1-propenyl(Z))-2,2-dimethylcyclopropanecarboxylate] | 10 | 20 |  |  |  |  |
| CN/C(=N\[N+](=O)[O-])NCc1cnc(Cl)s1 [reference 1, (E)-1-(2-chloro-1,3-thiazol-5-ylmethyl)-3-methyl-2-nitroguanidine] |  |  | 10 | 10 | 10 | 20 |
